Biological target: T1, AhR/Arnt complex (Mus musculus, UniProt P30561)
T1 construct: made in house; host or cells: TNT rabbit reticulocyte lysate
T1 sequence (P30561 10-805 limits assumed): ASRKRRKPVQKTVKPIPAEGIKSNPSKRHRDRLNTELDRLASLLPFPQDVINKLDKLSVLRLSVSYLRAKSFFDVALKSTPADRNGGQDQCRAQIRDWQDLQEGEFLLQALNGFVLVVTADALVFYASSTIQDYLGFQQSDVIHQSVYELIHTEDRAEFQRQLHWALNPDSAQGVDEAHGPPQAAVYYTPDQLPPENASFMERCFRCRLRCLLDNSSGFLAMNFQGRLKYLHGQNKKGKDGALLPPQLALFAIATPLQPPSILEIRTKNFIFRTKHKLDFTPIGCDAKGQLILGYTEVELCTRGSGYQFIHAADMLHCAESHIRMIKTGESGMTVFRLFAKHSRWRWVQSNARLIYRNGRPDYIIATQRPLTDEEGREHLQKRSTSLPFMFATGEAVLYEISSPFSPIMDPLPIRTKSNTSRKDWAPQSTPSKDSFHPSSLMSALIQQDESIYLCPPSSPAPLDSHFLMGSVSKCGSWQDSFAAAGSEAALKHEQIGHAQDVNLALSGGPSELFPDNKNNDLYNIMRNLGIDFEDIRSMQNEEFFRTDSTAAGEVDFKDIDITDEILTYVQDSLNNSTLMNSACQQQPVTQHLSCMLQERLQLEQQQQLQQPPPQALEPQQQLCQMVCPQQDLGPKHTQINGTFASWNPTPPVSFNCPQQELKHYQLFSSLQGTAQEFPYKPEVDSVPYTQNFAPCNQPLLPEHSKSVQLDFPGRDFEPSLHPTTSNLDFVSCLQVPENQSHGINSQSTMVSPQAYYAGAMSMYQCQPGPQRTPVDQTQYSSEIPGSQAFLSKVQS
Assay: AhR/Arnt complex formation by immunoprecipitation in RRL
Type: biochemical, murine
Conditions: 200 μm EGCG, with or without 1 nM TCDD, anti-AhR immunoprecipitation
Text: Murine AhR and ARNT cDNA (obtained from J. Whitlock and O. Hankinson, respectively) were inserted into pcDNA3 (Invitrogen, Carlsbad, Calif.). Chicken hsp90 constructs (FIG. 5), c90711hsp (wild-type), c90G94D (wild-type point mutant gly94→Asp (Grenert et al., J. Biol. Chem. 272:23843-23850 (1997), which is hereby incorporated by reference in its entirety), c90D92A (wild-type point mutant Asp92→Ala (Sullivan et al., J. Biol. Chem. 268:20373-20379 (1993), which is hereby incorporated by reference in its entirety), c90N221 (wild-type truncation mutant encoding a.a. 221-728 (Sullivan et al., J. Biol. Chem. 268:20373-20379 (1993), which is hereby incorporated by reference in its entirety)), c90N303 (a.a. 303-728) and c90N538 (a.a. 538-728) were kind gifts from Dr. D. Toft (Rochester, Minn.). The C-terminal truncation mutant c900507 (a.a. 1-221) was obtained from Dr. L. Neckers (Rockville, Md.) (Grenert et al., J. Biol. Chem. 272:23843-23850 (1997); Marcu et al., J. Biol. Chem. 275:37181-37186 (2000), which are hereby incorporated by reference in their entirety). Human p23 cDNA was excised from pQE80-p23 (obtained from W. Chan Stockton, Calif.) by sequential digests using the restriction enzymes Sad (3′-end) and BamHI (5′-end) and inserted into the similarly digested pET28a (Novagen, Madison, Wis.). […]

SMILES: O=C(O[C@@H]1Cc2c(O)cc(O)cc2O[C@@H]1c1cc(O)c(O)c(O)c1)c1cc(O)c(O)c(O)c1 [EGCG, epigallocatechin gallate]
- effect on AhR/Arnt complex formation: disrupting AhR/Arnt complex formation

Reference: US20120165403A1, “METHODS OF INHIBITING THE ACTIVITY OF HSP90 AND/OR ARYL HYDROCARBON RECEPTOR” (UNIVERSITY OF ROCHESTER, priority 2004, published 2012)
